Source: US20230404929A1, “Intradermal Delivery of Extracellular Vesicle-Encapsulated Curcumin Using Dissolvable Microneedle Arrays” (priority 2020, published 2023)

What was measured:
[1] = in vitro stability of curcumin in phosphate-buffered saline at 37° C.; type: physicochemical
[2] = test system: psoriasis-like inflammation; experiment: imiquimod psoriasis-like skin inflammation in mice; type: in vivo; conditions: skin cross-section
Text: The efficacy of dMNA-delivered CA-EVs in simultaneously blocking and reversing inflammation was studied. The treatments included topical, intradermal, and dMNA application of CA-EVs, naïve EVs, and naked curcumin.

curcumin remaining stable ([1]; 3 hours): 5%
degradation of curcumin over time ([1]; seven-day study): degraded entirely within one day
SMILES: COc1cc(/C=C/C(=O)CC(=O)/C=C/c2ccc(O)c(OC)c2)ccc1O [naked curcumin, curcumin]
therapeutic effect on imiquimod-induced skin inflammation [2]: negligible effect
